# Columns and labels:
# EGFR^WT = EGFR^WT (Homo sapiens, UniProt P00533); assay: ELISA kinase activity assay, poly(Glu,Tyr) […] substrate, […] ATP; assay type: biochemical
# EGFR^L858R/T790M = target: T1, EGFR^L858R/T790M (Homo sapiens, UniProt P00533, L858R/T790M); assay: ELISA kinase activity assay, recombinant kinase, poly(Glu,Tyr) […] substrate, […] ATP; assay type: biochemical
# T1 construct: kinase domain
# T1 sequence (P00533 696-1022 T790M/L858R limits assumed): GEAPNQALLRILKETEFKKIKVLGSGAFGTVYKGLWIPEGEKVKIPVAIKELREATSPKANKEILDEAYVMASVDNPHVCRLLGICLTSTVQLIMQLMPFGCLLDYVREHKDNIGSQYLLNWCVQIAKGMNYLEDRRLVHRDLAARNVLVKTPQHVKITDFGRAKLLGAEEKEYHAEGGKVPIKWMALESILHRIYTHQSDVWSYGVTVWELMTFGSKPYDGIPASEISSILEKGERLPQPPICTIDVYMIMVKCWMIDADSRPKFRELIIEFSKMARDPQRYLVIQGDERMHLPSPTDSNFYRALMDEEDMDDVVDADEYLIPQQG
# EGFR^WT, sequence (P00533 25-1210): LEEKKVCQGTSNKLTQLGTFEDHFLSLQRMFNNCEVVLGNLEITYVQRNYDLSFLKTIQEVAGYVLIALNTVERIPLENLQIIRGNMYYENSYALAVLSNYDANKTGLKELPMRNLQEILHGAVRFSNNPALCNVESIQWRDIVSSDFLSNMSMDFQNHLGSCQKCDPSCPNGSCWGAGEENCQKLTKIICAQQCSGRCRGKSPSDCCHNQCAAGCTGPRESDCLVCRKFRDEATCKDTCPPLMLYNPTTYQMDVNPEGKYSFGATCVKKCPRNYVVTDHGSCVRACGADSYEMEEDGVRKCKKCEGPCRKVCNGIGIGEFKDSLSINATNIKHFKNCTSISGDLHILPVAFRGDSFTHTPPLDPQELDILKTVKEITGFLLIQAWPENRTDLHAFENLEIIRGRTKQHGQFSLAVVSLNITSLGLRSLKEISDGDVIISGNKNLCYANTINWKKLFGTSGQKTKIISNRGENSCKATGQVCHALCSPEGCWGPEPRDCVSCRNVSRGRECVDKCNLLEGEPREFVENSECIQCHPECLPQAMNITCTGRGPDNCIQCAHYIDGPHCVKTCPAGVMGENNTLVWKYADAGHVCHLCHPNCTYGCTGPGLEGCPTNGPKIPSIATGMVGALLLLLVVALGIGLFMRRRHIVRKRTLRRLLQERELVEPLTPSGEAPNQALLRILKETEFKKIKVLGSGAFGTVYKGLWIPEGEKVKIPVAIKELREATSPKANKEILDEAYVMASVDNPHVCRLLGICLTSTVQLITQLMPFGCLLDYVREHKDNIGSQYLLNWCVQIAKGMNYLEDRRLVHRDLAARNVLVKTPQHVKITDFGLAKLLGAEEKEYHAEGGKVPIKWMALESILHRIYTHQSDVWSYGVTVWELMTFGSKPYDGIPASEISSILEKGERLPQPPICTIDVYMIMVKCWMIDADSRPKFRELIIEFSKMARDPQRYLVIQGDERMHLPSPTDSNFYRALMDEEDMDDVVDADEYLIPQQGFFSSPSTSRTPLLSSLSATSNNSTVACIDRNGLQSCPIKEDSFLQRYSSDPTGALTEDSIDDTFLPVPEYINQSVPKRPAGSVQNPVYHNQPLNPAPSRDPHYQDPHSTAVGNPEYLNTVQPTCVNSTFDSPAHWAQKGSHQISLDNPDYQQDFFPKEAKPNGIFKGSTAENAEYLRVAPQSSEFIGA
compound,measurement,setting,value
Cc1cc2c(C(C)C)c(O)c(O)c(C=O)c2c(O)c1-c1c(C)cc2c(C(C)C)c(O)c(O)c(C=O)c2c1O [gossypol],EC50,EGFR^WT,253 ± 26.9 nM
same,EC50,EGFR^L858R/T790M,150 ± 30.7 nM

# From PMC6046546, “Gossypol Inhibits Non-small Cell Lung Cancer Cells Proliferation by Targeting EGFR^L858R/T790M” (Frontiers in Pharmacology, 2018)
